Key:
Assay in all cases: relative viability (nuclei count vs DMSO), 5 days (fraction); higher = more cells survive
[1] = compound: CN(C)C/C=C/C(=O)Nc1cc2c(Nc3ccc(F)c(Cl)c3)ncnc2cc1O[C@H]1CCOC1 [Afatinib]
How it was run: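 On vehicle-anchored 1536-well plates, lung cancer cell lines held overnight at 37 °C were pinned with five library-drug doses (not always all listed) spaced by √10. With no medium change over 5 days, they were then fixed, permeabilised and Hoechst-stained in one step and imaged at 4×. MetaXpress counted nuclei, and viability is the median across plates of treated-well over vehicle-well nuclei. Acceptance needed control CV below 25% and at least one doubling.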

[2] = compound: CN(C)C/C=C/C(=O)Nc1cc2c(Nc3ccc(F)c(Cl)c3)ncnc2cc1O[C@H]1CCOC1 [Afatinib] + CC(=O)Nc1cccc(-n2c(=O)n(C3CC3)c(=O)c3c(Nc4ccc(I)cc4F)n(C)c(=O)c(C)c32)c1 [Trametinib] (partner 0.02 µM)
How it was run: (§1)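 A single step with final 0.05% Triton X-100, 1% formaldehyde and 1 ug/ml Hoechst fixed the cells and stained nuclei 5 days after treatment. Lung cancer cell lines in 1536-well plates had been treated by pin tool the day after seeding with one drug alone or a fixed anchor-drug dose plus five library-drug doses (not always all listed) in √10 steps, and nuclei were counted on 4× images. Relative viability is the ratio of nuclei in treated wells to nuclei in vehicle wells, taken as the median of duplicate plates.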

[3] = compound: CN(C)C/C=C/C(=O)Nc1cc2c(Nc3ccc(F)c(Cl)c3)ncnc2cc1O[C@H]1CCOC1 [Afatinib] + Cc1cc(Nc2cc(N3CCN(C)CC3)nc(Sc3ccc(NC(=O)C4CC4)cc3)n2)n[nH]1 [Tozasertib] (partner 0.1 µM)
How it was run: as §1

[4] = compound: CN(C)C/C=C/C(=O)Nc1cc2c(Nc3ccc(F)c(Cl)c3)ncnc2cc1O[C@H]1CCOC1 [Afatinib] + NC(=O)Nc1cc(-c2cccc(F)c2)sc1C(=O)N[C@H]1CCCNC1 [AZD7762] (partner 0.2 µM)
How it was run: as §1

Row | Cell Line | relative viability ([1]; 0.005 µM) | relative viability ([1]; 0.01581 µM) | relative viability ([1]; 0.05 µM) | relative viability ([1]; 0.1581 µM) | relative viability ([1]; 0.5 µM) | relative viability ([2]; first compound 0.005 µM) | relative viability ([2]; first compound 0.01581 µM) | relative viability ([2]; first compound 0.05 µM) | relative viability ([2]; first compound 0.1581 µM) | relative viability ([2]; first compound 0.5 µM) | relative viability ([3]; first compound 0.005 µM) | relative viability ([3]; first compound 0.01581 µM) | relative viability ([3]; first compound 0.05 µM) | relative viability ([3]; first compound 0.1581 µM) | relative viability ([3]; first compound 0.5 µM) | relative viability ([4]; first compound 0.005 µM) | relative viability ([4]; first compound 0.01581 µM) | relative viability ([4]; first compound 0.05 µM) | relative viability ([4]; first compound 0.1581 µM) | relative viability ([4]; first compound 0.5 µM)
1 | HCC-15 | 1.04 | 1.06 | 1.04 | 0.979 | 0.999 | 0.338 | 0.393 | 0.325 | 0.35 | 0.344 | 0.49 | 0.488 | 0.422 | 0.299 | 0.406 | 1.14 | 1.39 | 1.32 | 1.19 | 1.05
2 | NCI-H647 | 0.999 | 0.878 | 0.998 | 0.968 | 1.04 | 0.554 | 0.465 | 0.451 | 0.468 | 0.438 | 0.251 | 0.263 | 0.417 | 0.211 | 0.276 | 0.32 | 0.426 | 0.403 | 0.525 | 0.466
3 | NCI-H1651 | 1.07 | 0.949 | 0.941 | 0.961 | 0.915 | 0.856 | 0.862 | 0.838 | 0.808 | 0.785 | 0.718 | 0.748 | 0.727 | 0.591 | 0.609 | 0.396 | 0.361 | 0.424 | 0.421 | 0.451
4 | NCI-H1734 | 0.998 | 0.979 | 1.02 | 0.968 | 1.03 | 0.684 | 0.671 | 0.715 | 0.683 | 0.692 | 0.253 | 0.255 | 0.269 | 0.289 | 0.26 | 0.389 | 0.602 | 0.58 | 0.498 | 0.471
5 | NCI-H3122 | 0.999 | 1.01 | 1.01 | 0.929 | 0.999 | 0.186 | 0.192 | 0.224 | 0.248 | 0.223 | 0.452 | 0.504 | 0.394 | 0.327 | 0.459 | 1.07 | 0.985 | 0.991 | 0.883 | 1.05
6 | CAL-12T | 1 | 0.843 | 0.748 | 0.489 | 0.654 | 0.278 | 0.273 | 0.286 | 0.247 | 0.261 | 0.315 | 0.339 | 0.311 | 0.168 | 0.189 | 0.631 | 0.594 | 0.546 | 0.491 | 0.505
7 | HCC-78 | 1.07 | 0.89 | 0.898 | 0.791 | 0.815 | 0.788 | 0.677 | 0.723 | 0.559 | 0.698 | 0.474 | 0.405 | 0.403 | 0.312 | 0.47 | 0.693 | 0.542 | 0.509 | 0.478 | 0.449
8 | NCI-H2085 | 0.99 | 0.958 | 0.856 | 0.757 | 0.858 | 0.433 | 0.507 | 0.692 | 0.513 | 0.457 | 0.795 | 0.754 | 0.721 | 0.619 | 0.619 | 0.753 | 0.957 | 0.897 | 0.636 | 0.753
